Laboratory results as given in patent publication US20110130380A1, “Heteroaryl Kinase Inhibitors” (priority 2009, published 2011).

Biological target: Cdk9/cyclinT1 (Homo sapiens, UniProt P50750)
Assay: Cdk9/cyclinT1 IMAP Protocol (fluorescence polarization kinase assay)
Conditions: ATP 6 uM
[1] = Cdk9_cyclinT1_IC50, Table V, generated using one of the two Cdk9/cyclinT1 assays (IMAP or Alpha Screen), not stated which
[2] = Cdk9_cyclinT1_IC50, generated using one of the two Cdk9/cyclinT1 assays (IMAP or Alpha Screen), not specified per value

Chain of Cdk9/cyclinT1 (P50750 whole entry): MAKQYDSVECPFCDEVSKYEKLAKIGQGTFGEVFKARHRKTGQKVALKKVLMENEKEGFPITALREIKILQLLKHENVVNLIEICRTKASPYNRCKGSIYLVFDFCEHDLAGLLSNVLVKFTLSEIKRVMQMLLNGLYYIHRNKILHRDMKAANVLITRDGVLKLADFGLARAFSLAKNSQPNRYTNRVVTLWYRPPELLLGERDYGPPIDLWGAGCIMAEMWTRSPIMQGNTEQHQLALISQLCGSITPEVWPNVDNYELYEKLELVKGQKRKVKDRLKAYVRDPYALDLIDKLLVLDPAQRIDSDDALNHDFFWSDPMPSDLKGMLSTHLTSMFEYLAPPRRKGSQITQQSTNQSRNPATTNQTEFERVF
Chain of Cdk9/cyclinT1 (O60563 whole entry partner): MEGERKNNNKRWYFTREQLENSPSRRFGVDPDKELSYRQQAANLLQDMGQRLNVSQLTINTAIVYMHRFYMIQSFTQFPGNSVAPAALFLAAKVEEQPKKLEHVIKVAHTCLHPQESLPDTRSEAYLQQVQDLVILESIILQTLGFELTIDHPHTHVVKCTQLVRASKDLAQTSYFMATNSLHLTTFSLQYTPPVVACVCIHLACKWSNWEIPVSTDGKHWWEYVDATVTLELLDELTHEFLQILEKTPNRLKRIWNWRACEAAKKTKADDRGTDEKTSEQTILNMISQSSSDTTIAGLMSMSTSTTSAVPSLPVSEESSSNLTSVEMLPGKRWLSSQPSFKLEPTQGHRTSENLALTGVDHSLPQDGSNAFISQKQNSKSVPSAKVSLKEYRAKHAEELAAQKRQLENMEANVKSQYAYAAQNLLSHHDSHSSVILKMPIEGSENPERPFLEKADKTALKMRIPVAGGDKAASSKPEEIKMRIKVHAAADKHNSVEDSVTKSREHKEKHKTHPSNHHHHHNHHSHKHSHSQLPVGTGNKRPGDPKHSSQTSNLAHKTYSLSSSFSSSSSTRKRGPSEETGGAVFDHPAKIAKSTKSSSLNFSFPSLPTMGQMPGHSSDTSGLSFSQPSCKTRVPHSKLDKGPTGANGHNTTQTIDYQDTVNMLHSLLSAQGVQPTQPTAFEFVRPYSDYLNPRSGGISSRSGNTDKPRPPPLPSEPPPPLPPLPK

Row | IC50 [1] | IC50 [2] | SMILES
1 | 134 nM |  | O=C(Nc1cc(-c2cccc(NCC3CCOCC3)n2)c(Cl)cn1)[C@H]1CNC[C@H]1O [Example 121, (3S,4S)-4-hydroxy-pyrrolidine-3-carboxylic acid {5′-chloro-6-[(tetrahydro-pyran-4-ylmethyl)-amino]-[2,4′]bipyridinyl-2′-yl}-amide]
2 | < 8 nM |  | CC1(C)CC(CNc2ccc(Cl)c(-c3cc(NC(=O)[C@H]4CNCCO4)ncc3Cl)n2)CCO1 (stereo partly drawn) [Example 133, (R)-Morpholine-2-carboxylic acid {3,5′-dichloro-6-[(2,2-dimethyl-tetrahydro-pyran-4-ylmethyl)-amino]-[2,4′]bipyridinyl-2′-yl}-amide]
3 | < 8 nM |  | COC(=O)N1CCC[C@H](C(=O)Nc2cc(-c3cccc(NCC4CCS(=O)(=O)CC4)n3)c(Cl)cn2)C1 [Example 152, (S)-3-{5′-Chloro-6-[(1′,1′-dioxo-hexahydro-1-thiopyran-4-ylmethyl)-amino]-[2,4′]bipyridinyl-2′-ylcarbamoyl}-piperidine-1-carboxylic acid methyl ester]
4 | < 8 nM |  | CC1(C)CC(CNc2ccc(Cl)c(-c3cc(NC(=O)[C@@H]4CCCNC4)ncc3Cl)n2)CCO1 (stereo partly drawn) [Example 132, (R)-Piperidine-3-carboxylic acid {3,5′-dichloro-6-[(2,2-dimethyl-tetrahydro-pyran-4-ylmethyl)-amino]-[2,4′]bipyridinyl-2′-yl}-amide]
5 | 8 nM |  | C[C@H](Nc1cccc(-c2cc(NC(=O)[C@@H]3CCCNC3)ncc2Cl)n1)C1CCCCC1 [Example 77, (R)-Piperidine-3-carboxylic acid [5′-chloro-6-((S)-1-cyclohexyl-ethylamino)-[2,4′]bipyridinyl-2′-yl]-amide]
6 | 1 nM |  | O=C(Nc1cc(-c2nc(NCC3CCOCC3)ccc2Cl)c(Cl)cn1)C1CCCCNC1 (stereo not shown) [Example 194, Azepane-3-carboxylic acid {3,5′-dichloro-6-[(tetrahydro-pyran-4-ylmethyl)-amino]-[2,4′]bipyridinyl-2′-yl}-amide]
7 | 1 nM |  | O=C(Nc1cc(-c2cccc(NCC3CCOCC3)n2)c(Cl)cn1)[C@@H]1CN[C@H](CF)C1 [Example 178, (3S,5S)-5-Fluoromethyl-pyrrolidine-3-carboxylic acid {5′-chloro-6-[(tetrahydro-pyran-4-ylmethyl)-amino]-[2,4′]bipyridinyl-2′-yl}-amide]
8 | 10 nM |  | O=C(Nc1cc(-c2cccc(NCC3CCOCC3)n2)c(Cl)cn1)[C@H]1CNC[C@H](C(F)(F)F)C1 (single isomer, unassigned) [Example 162]
9 | < 8 nM |  | CO[C@H]1CNC[C@@H]1C(=O)Nc1cc(-c2nc(NCC3CCOCC3)ccc2Cl)c(Cl)cn1 [Example 150, (3S,4R)-4-Methoxy-pyrrolidine-3-carboxylic acid {3,5′-dichloro-6-[(tetrahydro-pyran-4-ylmethyl)-amino]-[2,4′]bipyridinyl-2′-yl}-amide]
10 | 15 nM |  | COC(=O)N1CCC[C@H](C(=O)Nc2cc(-c3nc(N[C@@H](C)C4CCOCC4)ccc3Cl)c(Cl)cn2)C1 [Example 154, (S)-3-{3,5′-Dichloro-6-[(S)-1-(tetrahydro-pyran-4-yl)-ethylamino]-[2,4′]bipyridinyl-2′-ylcarbamoyl}-piperidine-1-carboxylic acid methyl ester]
11 | 18 nM |  | O=C(Nc1cc(-c2nc(NCC3CCOCC3)ccc2Cl)c(Cl)cn1)C1CNCCO1 (stereo not shown) [Example 87, Morpholine-2-carboxylic acid {3,5′-dichloro-6-[(tetrahydro-pyran-4-ylmethyl)-amino]-[2,4′]bipyridinyl-2′-yl}-amide]
12 |  | 103 nM | Cc1ncc(-c2cc(NC(=O)[C@@H]3CCCNC3)ncc2Cl)cc1NCC1CCOCC1 [Example 311, (R)-Piperidine-3-carboxylic acid {5′-chloro-6-methyl-5-[(tetrahydro-pyran-4-ylmethyl)-amino]-[3,4′]bipyridinyl-2′-yl}-amide]
13 | 1 nM |  | CC1(C)CO[C@@H](CNc2cccc(-c3cc(NC(=O)[C@@H]4CCCNC4)ncc3Cl)n2)CO1 (single isomer, unassigned) [Example 231]
14 | 2 nM |  | O=C(Nc1cc(-c2nc(NCC3CCOCC3)ccc2Cl)c(Cl)cn1)C1CNCCOC1 (single isomer, unassigned) [Example 213]
15 | 55 nM |  | O=C(Nc1cc(-c2cccc(NCC3CCOCC3)n2)c(Cl)cn1)[C@@H]1CNC[C@H](C(F)(F)F)C1 (single isomer, unassigned) [Example 183]
16 | < 8 nM |  | O=C(Nc1cc(-c2cccc(NC[C@@H]3CCCOC3)n2)c(Cl)cn1)[C@@H]1CCCNC1 (single isomer, unassigned) [Example 79]
17 | 1 nM |  | COC1(CNc2nc(-c3cc(NC(=O)C4CCC(C)NC4)ncc3Cl)ccc2F)CCOCC1 (stereo not shown) [Example 261, 6-Methyl-piperidine-3-carboxylic acid {5′-chloro-5-fluoro-6-[(4-methoxy-tetrahydro-pyran-4-ylmethyl)-amino]-[2,4′]bipyridinyl-2′-yl}-amide]
18 | 4 nM |  | O=C(Nc1cc(-c2cccc(NCC3CCOCC3)n2)c(Cl)cn1)[C@H]1CNC[C@@H](C(F)(F)F)C1 (single isomer, unassigned) [Example 182]
19 | 4 nM |  | O=C(Nc1cc(-c2ccc(C(F)(F)F)c(NCC3CCOCC3)n2)c(Cl)cn1)[C@@H]1CCCNC1 [Example 217, (R)-Piperidine-3-carboxylic acid {5′-chloro-6-[(tetrahydro-pyran-4-ylmethyl)-amino]-5-trifluoromethyl-[2,4′]bipyridinyl-2′-yl}-amide]
20 |  | 25 nM | CC(C)(C)OC(=O)N1CCC[C@@H](C(=O)Nc2cc(-c3cnc(Cl)c(NCC4CCOCC4)c3)c(Cl)cn2)C1 [Example 303, (R)-3-{6,5′-Dichloro-5-[(tetrahydro-pyran-4-ylmethyl)-amino]-[3,4′]bipyridinyl-2′-ylcarbamoyl}-piperidine-1-carboxylic acid tert-butyl ester]
21 | 9 nM |  | CC(C)CCNc1cccc(-c2cc(NC(=O)[C@@H]3CCCNC3)ncc2Cl)n1 [Example 23, (R)-Piperidine-3-carboxylic acid [5′-chloro-6-(3-methyl-butylamino)-[2,4′]bipyridinyl-2′-yl]-amide]
22 |  | 81 nM | CC(C)(C)OC(=O)N1CCC[C@@H](C(=O)Nc2cc(-c3cncc(NCC4CCOCC4)c3)c(Cl)cn2)C1 [Example 304, (R)-3-{5′-Chloro-5-[(tetrahydro-pyran-4-ylmethyl)-amino]-[3,4′]bipyridinyl-2′-ylcarbamoyl}-piperidine-1-carboxylic acid tert-butyl ester]
23 | 1 nM |  | CC(C)S(=O)(=O)N1CCC[C@H](C(=O)Nc2cc(-c3nc(NC[C@H]4CCOC(C)(C)C4)ccc3Cl)c(Cl)cn2)C1 (single isomer, unassigned) [Example 173]
24 | 1 nM |  | CC[C@@H]1CC[C@@H](C(=O)Nc2cc(-c3ccc(F)c(NCC4CCOCC4)n3)c(Cl)cn2)CN1 (single isomer, unassigned) [Example 256]
25 | 482 nM |  | CS(=O)(=O)N1CCC[C@@H](C(=O)Nc2cc(-c3cccc(NCC4CCOCC4)n3)c(Cl)cn2)C1 [Example 83, (R)-1-Methanesulfonyl-piperidine-3-carboxylic acid {5′-chloro-6-[(tetrahydro-pyran-4-ylmethyl)-amino]-[2,4′]bipyridinyl-2′-yl}-amide]
